EP4635565A1, “PRENYLATED TETRAHYDROQUINOLINES AND QUINOLINES WITH PPAR AGONIST ACTIVITY” (Fundación para la Investigación del Hospital Clínico de la …, priority 2024, dated 2025)

How the values were obtained:
hPPARα = target: T1, hPPARα (Homo sapiens, UniProt Q07869); assay: PPAR transactivation assay, human chimeric PPAR/Gal4 reporter luciferase system in Cos-7 cells (PPARα); type: cell-based; settings: for Emax: COS-7, read-out: efficiencies times higher than the prior art compound WY-14,643; for Emax at 10 µM: COS-7, read-out: Efficacy (%) at 10 µmol/L PPARα
T1 sequence (Q07869 167-468): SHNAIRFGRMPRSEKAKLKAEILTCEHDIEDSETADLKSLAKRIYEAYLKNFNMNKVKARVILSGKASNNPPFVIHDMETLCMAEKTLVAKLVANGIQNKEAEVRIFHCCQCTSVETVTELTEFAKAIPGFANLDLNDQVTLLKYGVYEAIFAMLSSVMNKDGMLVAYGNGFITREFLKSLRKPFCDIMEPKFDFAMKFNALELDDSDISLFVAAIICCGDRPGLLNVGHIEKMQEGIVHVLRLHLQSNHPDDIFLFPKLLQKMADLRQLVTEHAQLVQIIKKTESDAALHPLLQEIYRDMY
Method: (§1) Transfections were stopped after 16 h by adding DMEM/10% FCS. Cells were detached with trypsin, re-seeded in 96-well plates for 6 h in DMEM/10% FCS, and incubated for 24 h in DMEM/0.2% FCS with increasing concentrations of the test compounds or vehicle (DMSO, 0.1% final concentration). At the end of the experiment, cells were washed once with ice-cold PBS, lysed, and luciferase and β-galactosidase activities were measured. Luciferase activity was normalised to that of the internal control, β-galactosidase. All transfection experiments were performed at least five times.
(§2) EC50 values against human PPARα/Gal4, PPARβ/δ/Gal4 and PPARγ/Gal4 receptors.

THP-1 cells = assay: Cytotoxicity, Annexin V-FITC/PI dual staining by flow cytometry; type: cell-based, human; settings: 30 and 100 µM, 24 h
Method: The cytotoxicity of tetrahydroquinoline and quinoline esters 5a, 5b, 8a and 8b was evaluated at 30 and 100 µM by flow cytometry to assess cell survival using an Annexin V-FITC/PI dual staining assay. THP-1 cells (3 × 10^4 cells per well) were seeded in 24-well plates and allowed to grow overnight. The medium was then replaced and incubations with the different compounds or DMSO were performed during 24 h. Then, all cells were processed with the Annexin V-assay kit (ANXCFK7, Immunostep, Salamanca, Spain) according to the manufacturer's instruction. A Becton Dickinson LSR Fortessa cytometer (BD Biosciences, Franklin Lakes, NJ, USA) was used for samples, and cell analysis were performed using FACSDiva X20 software.
The potential cytotoxic effects of the compounds of the invention 5a, 5b, 8a, and 8b on the human macrophage cell line THP-1 were evaluated by flow cytometry to assess cell survival using an Annexin V-FITC/PI dual staining assay. The THP-1 cells were treated with concentrations of 30 and 100 µM for 24 h.

hPPARβ/δ = target: T2, hPPARβ/δ (Homo sapiens, UniProt Q03181); assay: PPAR transactivation assay, human chimeric PPAR/Gal4 reporter luciferase system in Cos-7 cells (PPARβ/δ); type: cell-based; settings: for Emax at 10 µM: COS-7, read-out: Efficacy (%) at 10 µmol/L PPARβ/δ; for EC50: human PPARβ/δ/Gal4, Cos-7 cells, concentration range 0.001-10 µmol/L, NA: not active
T2 sequence (Q03181 171-441): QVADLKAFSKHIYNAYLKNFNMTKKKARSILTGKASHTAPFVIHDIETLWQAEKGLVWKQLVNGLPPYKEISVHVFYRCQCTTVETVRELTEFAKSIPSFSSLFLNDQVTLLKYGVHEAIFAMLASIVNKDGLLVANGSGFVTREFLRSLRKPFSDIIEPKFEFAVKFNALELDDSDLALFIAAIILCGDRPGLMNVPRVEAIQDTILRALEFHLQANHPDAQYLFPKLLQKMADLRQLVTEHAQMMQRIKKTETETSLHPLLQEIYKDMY
Method: as §1, §2

NF-κB-IL8P-Luc+ = assay: NF-κB-IL8P transactivation assay (TNFα-stimulated L929sA cells); type: cell-based, mouse; settings: 10 µM, 1 h before TNF (2000 IU/ml), total induction time 6 h; compared to GW7647
Method: L929sA mouse fibroblasts were stably transfected using the calcium phosphate precipitation protocol, as described previously with p1481.IL8P-Luc+ plasmid construct. The indicated induction was performed at least in triplicates. All conditions were solvent-controlled. Subsequently, the cells were washed with PBS and lysed using TROPIX lysis buffer. Cellular luciferase levels were normalised to those of β-galactosidase (TROPIX, Bedford, MA, USA).
(§3) PPARs play crucial roles in controlling inflammatory responses. NF-κB is a transcription factor that plays a pivotal role in the expression of multiple genes involved in the immune and inflammatory responses. To study the potential anti-inflammatory effects of the tetrahydroquinolines and quinolines of the invention, the NF-κB-dependent physiological human IL-8 promoter construct, p1481.IL8P-Luc+, which is stably integrated into L929sA cells, was tested. After transfection, cells were treated at 10 µM with 5a, 5b, 8a, or 8b prior to TNFa stimulation. […] Given the significant decrease in NF-κB-IL8P-Luc+ reporter gene activity observed after treatment with the 2- or 3-prenylated tetrahydroquinolines 5a and 5b and the 3-prenylated quinoline 8b, their potential anti-inflammatory effects at the transcriptional level for other inflammatory mediators was evaluated. To achieve this, the L929sA WT cells were treated with 5a, 5b and 8b at 10 µM for 1 h, followed by TNFa stimulation for a total induction time of 6 h. The expression of inflammatory genes was evaluated by RT-qPCR.

hPPARγ = target: T3, hPPARγ (Homo sapiens, UniProt P37231); assay: PPAR transactivation assay, human chimeric PPAR/Gal4 reporter luciferase system in Cos-7 cells (PPARγ); type: cell-based; settings: for Emax at 10 µM: COS-7, read-out: Efficacy (%) at 10 µmol/L PPARγ; for EC50: human PPARγ/Gal4, Cos-7 cells, concentration range 0.001-10 µmol/L, NA: not active
T3 sequence (P37231 238-505): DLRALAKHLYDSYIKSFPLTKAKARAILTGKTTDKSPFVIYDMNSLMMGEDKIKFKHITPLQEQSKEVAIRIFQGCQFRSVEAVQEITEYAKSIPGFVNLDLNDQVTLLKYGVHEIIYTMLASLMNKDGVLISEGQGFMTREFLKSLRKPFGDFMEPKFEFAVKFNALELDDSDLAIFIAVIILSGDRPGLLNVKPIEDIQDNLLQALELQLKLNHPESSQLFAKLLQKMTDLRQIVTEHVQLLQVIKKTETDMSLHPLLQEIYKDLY
Method: as §1, §2

Pdk4 = Pdk4 mRNA expression by RT-qPCR in L929sA WT cells; type: cell-based, mouse; settings: 10 µM, 6 h
Method: (§4) RNA was isolated using the RNeasy Purification Kit (Qiagen) according to the manufacturer's instructions. cDNA was synthesised using a PrimeScript kit (Takara). RT-qPCR was performed using Light Cycler 480 SYBR Green I Master Mix (Roche).
(§5) Pyruvate Dehydrogenase Kinase 4 gene (Pdk4), a well-known target gene of PPARs, encodes a protein that regulates the phosphorylation and inactivation of the pyruvate dehydrogenase complex in response to physiological conditions. This response switches the energy source from glucose to fatty acids to maintain blood glucose levels to, thereby, increase lipid metabolism. Because it is a well-known target gene of PPARs, the effect of the 2- and 3-prenylated esters of tetrahydroquinolines and quinolines on a Pdk4 region reported to bind PPARα, was evaluated. The L929sA cells that were stably transfected with a PDK4-(PPRE)3-Luc+ reporter gene construct were used.

[1] = tested on: hPPARα, hPPARβ/δ, and hPPARγ; assay: PPAR transactivation assays, agonist profile over the three isoforms; settings: always with partial activity on the PPARγ isoform
PDK4-(PPRE)3-Luc+ = assay: Pdk4 transactivation assay (PDK4-(PPRE)3-Luc+ reporter in L929sA cells); type: cell-based, mouse; settings: 10 µM, 6 h, L929sA cells; compared to GW7647 at 1 µM
Method: Transfection of L929sA cells stably expressing reporter genes was performed using the calcium phosphate precipitation protocol according to standard procedures with a 10-fold excess of the plasmid of interest in a pGL3-basic vector containing Luc+, a modified firefly luciferase gene (Promega Biotec, Madison, Wis,) USA. USA). The Pdk4 reporter was created using an enhancer site linked to the Pdk4 promoter containing three PPRE extracted from mouse liver genomic DNA. The aforementioned plasmid construct was then introduced into a pMet7 backbone, which had previously been cloned with a luciferase gene site, using Xhol and Sacl cut sites. The resulting construct was subjected to geneticin (neomycin) antibiotic selection to isolate individual clones. A stable cell line, designated Pdk4-Luc+, was subsequently established in L929sA cells, which also contained a constitutively expressed galactosidase reporter and a neomycin selection cassette.
as §5

[2] = tested on: TNFα-induced proinflammatory genes; assay: TNFα-induced pro-inflammatory gene expression by RT-qPCR in L929sA WT cells; type: cell-based, mouse; settings: 10 µM for 1 h, then TNFa, total induction time 6 h
Method: as §4, §3

| SMILES | EC50 (hPPARα) | Emax (hPPARα) | Emax at 10 µM (hPPARα) | cytotoxic effects (cell survival) (THP-1 cells) | Emax at 10 µM (hPPARβ/δ) | EC50 (hPPARβ/δ) | transactivation of the TNFα-dependent NF-κB-driven reporter (NF-κB-IL8P-Luc+) | Emax at 10 µM (hPPARγ) | EC50 (hPPARγ) | expression of Pdk4 mRNA (Pdk4) | PPAR agonist activity profile [1] | transactivation of the PDK4-Luc+ indicator (PDK4-(PPRE)3-Luc+) | transcription of TNFα-induced proinflammatory genes [2] |
| --- | --- | --- | --- | --- | --- | --- | --- | --- | --- | --- | --- | --- | --- |
| CCOC(=O)CC/C(C)=C/CC1Cc2cc(OCc3ccccc3)ccc2N(C)C1C (stereo not shown) [Compound 5b, Ethyl (E)-6-(6-(benzyloxy)-1,2-dimethyl-1,2,3,4-tetrahydroquinolin-3-yl)-4-methylhex-4-enoate] | 1900 nM | 300 to 400% | 328% | No cytotoxic effects were observed | 7% | 5800 nM | can repress the transactivation of the TNFα-dependent NF-κB-driven reporter | 15% | 16900 nM | increased expression levels of Pdk4 | selective PPARα | increased the transactivation of the PDK4-Luc+ indicator | downregulated the transcription of TNFα-induced proinflammatory genes such as Cc/5 and II-6 |
| C/C(=C\CCC1CCc2cc(OCc3ccccc3)ccc2N1C)CCC(=O)O (stereo not shown) [Compound 6a, (E)-7-(6-(benzyloxy)-1-methyl-1,2,3,4-tetrahydroquinolin-2-yl)-4-methylhept-4-enoic acid] | 2900 nM | – | 144% | – | 73% | 4600 nM | – | 36% | 3900 nM | – | pan-PPAR agonist activity | – | – |
| C/C(=C\CC1Cc2cc(OCc3ccccc3)ccc2N(C)C1C)CCC(=O)O (stereo not shown) [Compound 6b, (E)-6-(6-(benzyloxy)-1,2-dimethyl-1,2,3,4-tetrahydroquinolin-3-yl)-4-methylhex-4-enoic acid] | 1300 nM | 300 to 400% | 461% | – | 35% | 5800 nM | – | 24% | 1700 nM | – | selective PPARα | – | – |
| CCOC(=O)CC/C(C)=C/CCc1ccc2cc(OCc3ccccc3)ccc2n1 [Compound 8a, Ethyl (E)-7-(6-(benzyloxy)quinolin-2-yl)-4-methylhept-4-enoate] | 2800 nM | – | 210% | No cytotoxic effects were observed | 32% | 2000 nM | – | – | – | – | – | increased the transactivation of the PDK4-Luc+ indicator | – |
| CCOC(=O)CC/C(C)=C/Cc1cc2cc(OCc3ccccc3)ccc2nc1C [Compound 8b, Ethyl (E)-6-(6-(benzyloxy)-2-methylquinolin-3-yl)-4-methylhex-4-enoate] | 2200 nM | – | 221% | No cytotoxic effects were observed | 2% | 7900 nM | can repress the transactivation of the TNFα-dependent NF-κB-driven reporter | 37% | 1000 nM | – | dual PPARα/γ agonist activity | – | downregulated the transcription of TNFα-induced proinflammatory genes such as Cc/5 and II-6 |
| C/C(=C\CCc1ccc2cc(OCc3ccccc3)ccc2n1)CCC(=O)O [Compound 9a, (E)-7-(6-(benzyloxy)quinolin-2-yl)-4-methylhept-4-enoic acid] | 3600 nM | – | 104% | – | 14% | 1100 nM | – | 39% | 3300 nM | – | dual PPARα/γ agonist activity | – | – |
| C/C(=C\Cc1cc2cc(OCc3ccccc3)ccc2nc1C)CCC(=O)O [Compound 9b, (E)-6-(6-(benzyloxy)-2-methylquinolin-3-yl)-4-methylhex-4-enoic acid] | 1800 nM | – | 218% | – | 2% | 5100 nM | – | 25% | 900 nM | – | dual PPARα/γ agonist activity | – | – |
